Source: patent US20240199535A1, “DEUTERATED DHODH INHIBITORS” (priority 2021, published 2024)

What was measured:
[1] = in vitro; details: human, microsomes
[2] = in vivo; details: Han Wistar, rat
Experimental: Rats are provided with a catheter in the jugular vein (2-3 days prior to blood sampling). At each designated time point (0, 1, 2, 4, 8 and 24 h after dosing), 100 μL blood were collected into Li-heparin tubes, stored on ice until centrifugation (10 minutes at 3000 g, 4° C.) and plasma was prepared within 45 min after collection, frozen at −20° C. and stored at this temperature until processed for LC-MS analysis.

[3] = test system: SARS-CoV-2; assay: Antiviral activity on SARS-CoV-2, viral replication (YFP) assay; assay type: cell-based; details: Severe acute respiratory syndrome coronavirus 2, read-out: EC50 range
[4] = test system: SARS-CoV-2 d6-YFP; assay: Combinatorial drug assessment with EIDD-1931, viral replication inhibition assay; assay type: cell-based
[5] = in vivo; details: CC7BL/6J, mouse, po, 5 mg/kg
Experimental: The pharmacokinetics of the compounds of the present invention was evaluated in 3 male and 3 female mice (CC7BL/6J, 8 week old) after oral cassette dosing. Dose was 5 mg/kg, application volume was 5 mL/kg and vehicle was 5% Solutol, 95% NaCl solution (at 0.9% saline concentration). At each designated time point (0, 0.25, 0.5, 1, 2, 4, 8 h after dosing), 20 μL whole blood were collected from the tail vein into Li-heparin tubes, frozen on dry ice within 1-2 minutes of sampling and stored at −20° C. until processed for LC-MS analysis.

[6] = in vitro; details: male, rat, microsomes

[2H]c1cc([2H])c(-c2ccc(NC(=O)C3=C(C(=O)O)CCC3)c(F)c2)c([2H])c1OC([2H])([2H])[2H] [Example 2, 2-((3-Fluoro-3′-(methoxy-d3)-[1,1′-biphenyl]-4-yl-2′,4′,6′-d3)carbamoyl)cyclopent-1-ene-1-carboxylic Acid]
microsomal CLint ([1]; both): 0.74 µL/min/mg | microsomal CLint ([1]; female): 5.8 µL/min/mg | microsomal CLint ([1]; male): 7.67 µL/min/mg | % AUCextra ([2]; female, iv, 1 mg/kg): 13% | AUC(0-inf) ([2]; female, iv, 1 mg/kg): 79100 ng·h/mL | AUC(0-t) ([2]; female, iv, 1 mg/kg): 64700 ng·h/mL | C0 ([2]; female, iv, 1 mg/kg): 7980 ng/mL | Cz ([2]; female, iv, 1 mg/kg): 915 ng/mL | Vz/f ([2]; female, iv, 1 mg/kg): 0.017 L/kg | t1/2z ([2]; female, iv, 1 mg/kg): 10.0 h | tz ([2]; female, iv, 1 mg/kg): 24 h | bioavailability ([2]; female, po): 83.1% | % AUCextra ([2]; female, po, 5 mg/kg): 16% | AUC(0-inf) ([2]; female, po, 5 mg/kg): 320000 ng·h/mL | AUC(0-t) ([2]; female, po, 5 mg/kg): 269000 ng·h/mL | CL/F ([2]; female, po, 5 mg/kg): 3.5 mL/min/kg | Cmax ([2]; female, po, 5 mg/kg): 21300 ng/mL | Cz ([2]; female, po, 5 mg/kg): 3892 ng/mL | Tmax ([2]; female, po, 5 mg/kg): 2 h | Vd/F ([2]; female, po, 5 mg/kg): 0.017 L/kg | t1/2z ([2]; female, po, 5 mg/kg): 9.3 h | tz ([2]; female, po, 5 mg/kg): 24 h | % AUCextra ([2]; male, iv, 1 mg/kg): 23% | AUC(0-inf) ([2]; male, iv, 1 mg/kg): 45200 ng·h/mL | AUC(0-t) ([2]; male, iv, 1 mg/kg): 40400 ng·h/mL | C0 ([2]; male, iv, 1 mg/kg): 5310 ng/mL | Cz ([2]; male, iv, 1 mg/kg): 422 ng/mL | Vz/f ([2]; male, iv, 1 mg/kg): 0.01 L/kg | t1/2z ([2]; male, iv, 1 mg/kg): 7.6 h | tz ([2]; male, iv, 1 mg/kg): 24 h | bioavailability ([2]; male, po): 100% | % AUCextra ([2]; male, po, 5 mg/kg): 22% | AUC(0-inf) ([2]; male, po, 5 mg/kg): 233000 ng·h/mL | AUC(0-t) ([2]; male, po, 5 mg/kg): 202000 ng·h/mL | CL/F ([2]; male, po, 5 mg/kg): 3.43 mL/min/kg | Cmax ([2]; male, po, 5 mg/kg): 16000 ng/mL | Cz ([2]; male, po, 5 mg/kg): 1657 ng/mL | Tmax ([2]; male, po, 5 mg/kg): 2 h | Vd/F ([2]; male, po, 5 mg/kg): 0.008 L/kg | t1/2z ([2]; male, po, 5 mg/kg): 6.6 h | tz ([2]; male, po, 5 mg/kg): 24 h

[2H]c1c([2H])c(F)c([2H])c(-c2cc(F)c(NC(=O)C3=C(C(=O)O)CCC3)c(F)c2)c1[2H] [1/7]
EC50 [3]: < 10 µM

[2H]C([2H])([2H])Oc1cccc(-c2cc(F)c(NC(=O)C3=C(C(=O)O)CCC3)c(F)c2)c1 [Example 9, 2-((3,5-Difluoro-3′-(methoxy-d3)-[1,1′-biphenyl]-4-yl)carbamoyl)cyclopent-1-ene-1-carboxylic Acid]
antiviral effect on SARS-CoV-2 in combination with nucleoside analogue EIDD-1931 [4]: synergistic antiviral effects | EC50 [3]: 10 to 25 µM

[2H]C([2H])([2H])Oc1ccccc1-c1cc(F)c(NC(=O)C2=C(C(=O)O)CCC2)c(F)c1 [1/4]
EC50 [3]: < 10 µM

COc1cccc(-c2ccc(NC(=O)C3=C(C(=O)O)CCC3)c(F)c2)c1 [Example C26, vidofludimus, reference compound]
AUC ([5]; female): 1970 ng·h/mL | Cmax ([5]; female): 745 ng/mL | half-life ([5]; female): 1.7 h | AUC ([5]; male): 1620 ng·h/mL | Cmax ([5]; male): 789 ng/mL | half-life ([5]; male): 1.7 h | microsomal CLint [6]: 8.48 µL/min/mg | microsomal CLint ([1]; both): 2.27 µL/min/mg | microsomal CLint ([1]; female): 6.58 µL/min/mg | microsomal CLint ([1]; male): 12.6 µL/min/mg | % AUCextra ([2]; female, iv, 1 mg/kg): 12% | AUC(0-inf) ([2]; female, iv, 1 mg/kg): 82900 ng·h/mL | AUC(0-t) ([2]; female, iv, 1 mg/kg): 68600 ng·h/mL | C0 ([2]; female, iv, 1 mg/kg): 8130 ng/mL | Cz ([2]; female, iv, 1 mg/kg): 939 ng/mL | Vz/f ([2]; female, iv, 1 mg/kg): 0.016 L/kg | t1/2z ([2]; female, iv, 1 mg/kg): 9.7 h | tz ([2]; female, iv, 1 mg/kg): 24 h | bioavailability ([2]; female, po): 73.8% | % AUCextra ([2]; female, po, 5 mg/kg): 17% | AUC(0-inf) ([2]; female, po, 5 mg/kg): 297000 ng·h/mL | AUC(0-t) ([2]; female, po, 5 mg/kg): 253000 ng·h/mL | CL/F ([2]; female, po, 5 mg/kg): 3.7 mL/min/kg | Cmax ([2]; female, po, 5 mg/kg): 21300 ng/mL | Cz ([2]; female, po, 5 mg/kg): 3620 ng/mL | Tmax ([2]; female, po, 5 mg/kg): 2 h | Vd/F ([2]; female, po, 5 mg/kg): 0.016 L/kg | t1/2z ([2]; female, po, 5 mg/kg): 9.1 h | tz ([2]; female, po, 5 mg/kg): 24 h | % AUCextra ([2]; male, iv, 1 mg/kg): 22% | AUC(0-inf) ([2]; male, iv, 1 mg/kg): 47900 ng·h/mL | AUC(0-t) ([2]; male, iv, 1 mg/kg): 43200 ng·h/mL | C0 ([2]; male, iv, 1 mg/kg): 5790 ng/mL | Cz ([2]; male, iv, 1 mg/kg): 421 ng/mL | Vz/f ([2]; male, iv, 1 mg/kg): 0.009 L/kg | t1/2z ([2]; male, iv, 1 mg/kg): 7.3 h | tz ([2]; male, iv, 1 mg/kg): 24 h | bioavailability ([2]; male, po): 92.7% | % AUCextra ([2]; male, po, 5 mg/kg): 25% | AUC(0-inf) ([2]; male, po, 5 mg/kg): 206000 ng·h/mL | AUC(0-t) ([2]; male, po, 5 mg/kg): 200000 ng·h/mL | CL/F ([2]; male, po, 5 mg/kg): 3.72 mL/min/kg | Cmax ([2]; male, po, 5 mg/kg): 14900 ng/mL | Cz ([2]; male, po, 5 mg/kg): 1540 ng/mL | Tmax ([2]; male, po, 5 mg/kg): 2 h | Vd/F ([2]; male, po, 5 mg/kg): 0.007 L/kg | t1/2z ([2]; male, po, 5 mg/kg): 6.4 h | tz ([2]; male, po, 5 mg/kg): 24 h
